A short description of test [1]: Displacement of 125I-[Sar1,Leu8] angiotensin-2 from rat type 1 angiotensin-2 receptor expressed in African green monkey COS7 cells after 24 hrs. It is filed as cell-based. Particulars: cos-7.
In test [2] the target is T1, Type-2 angiotensin II receptor (Homo sapiens, UniProt P50052).
T1 sequence (P50052 whole entry): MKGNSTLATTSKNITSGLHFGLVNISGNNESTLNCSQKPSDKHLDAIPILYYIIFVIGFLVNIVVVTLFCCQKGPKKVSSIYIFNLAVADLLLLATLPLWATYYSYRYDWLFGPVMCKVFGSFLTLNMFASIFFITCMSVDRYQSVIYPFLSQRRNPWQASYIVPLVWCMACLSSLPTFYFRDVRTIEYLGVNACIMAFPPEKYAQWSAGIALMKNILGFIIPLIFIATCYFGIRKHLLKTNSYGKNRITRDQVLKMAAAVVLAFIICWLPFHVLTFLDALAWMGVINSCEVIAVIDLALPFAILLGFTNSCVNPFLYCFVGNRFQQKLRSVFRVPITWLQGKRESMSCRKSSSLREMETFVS
Put plainly: Binding affinity to type-2 angiotensin-2 receptor (unknown origin).

Here are results for seven molecules from ChEMBL document CHEMBL3763155 (Bioorg Med Chem Lett, 2016).

Bounds are passed on as bounds.

With `CCCCOC(=O)NS(=O)(=O)c1ccc(CC(C)C)cc1-c1ccc(Cn2c(CC)nc3c(C)cc(C)nc32)cc1`, the IC50 in test [1] turned out to be 2.1 nM.
As for `CCCCOC(=O)NS(=O)(=O)c1sc(CC(C)C)cc1-c1ccc(Cn2ccnc2)cc1` [BULOXIBUTID], the inhibition constant Ki in test [1] is greater than 10000 nM.
Turning to `CCCCOC(=O)NS(=O)(=O)c1ccc(CCC)cc1-c1ccc(Cn2c(CC)nc3c(C)cc(C)nc32)cc1`, the IC50 in test [1] turned out to be 1.5 nM.
On the same count and under the same terms, the result for `CCCCc1nc(Cl)c(CO)n1Cc1ccc(-c2ccccc2-c2nnn[nH]2)cc1` [LOSARTAN] reads 12.1 nM.
As to `CCOc1nc2cccc(C(=O)O)c2n1Cc1ccc(-c2ccccc2-c2nnn[nH]2)cc1`, the Ki is greater than 10 µM in test [2] and 0.17 nM in test [1].
In test [1], `COc1ccc2c(c1OCc1ccccc1)C[C@@H](C(=O)O)N(C(=O)C(c1ccccc1)c1ccccc1)C2` [OLODANRIGAN] came in with an inhibitory constant (Ki) of 409 nM.
Same read-out and setting: the result for `CC[C@H](C)[C@H](NC(=O)[C@H](Cc1ccc(O)cc1)NC(=O)[C@@H](NC(=O)[C@H](CCCNC(=N)N)NC(=O)[C@@H](N)CC(=O)O)C(C)C)C(=O)N[C@@H](Cc1cnc[nH]1)C(=O)N1CCC[C@H]1C(=O)N[C@@H](Cc1ccccc1)C(=O)O` [ANGIOTENSIN II] reads 0.95 nM.
